Experimental data from ChEMBL document CHEMBL4251601 (Eur J Med Chem, 2018).

Legend:
[1] = AUC (0 to 24 hrs) in ICR mouse at 2 mg/kg, iv administered as single dose by LC-MS/MS analysis; assay type: ADME, organism-based; parameters: dose 2 mg/kg, time < 24 hr, route intravenous; conditions: in vivo
[2] = molecular target: Serine/threonine-protein kinase MRCK beta (Homo sapiens) (UniProt Q9Y5S2); test: Inhibition of recombinant human His-tagged CDC42 BPB expressed in baculovirus expression system at 1 uM by Z'-Lyte assay relative to control
[3] = Volume of distribution at steady state in Sprague-Dawley rat at 2 mg/kg, iv administered as single dose by LC-MS/MS analysis; assay type: ADME, organism-based; conditions: in vivo, read-out: Vdss
[4] = molecular target: Protein-tyrosine kinase 6 (Homo sapiens) (UniProt Q13882); test: Inhibition of recombinant human full length His-tagged PTK6 expressed in baculovirus expression system at 1 uM by TR-FRET assay relative to control
[5] = molecular target: RAC-beta serine/threonine-protein kinase (Homo sapiens) (UniProt P31751); test: Inhibition of recombinant full length human His-tagged AKT2 expressed in baculovirus expression system at 1 uM by TR-FRET assay relative to control
[6] = molecular target: Mitogen-activated protein kinase 1 (Homo sapiens) (UniProt P28482); test: Inhibition of recombinant human full length GST-tagged ERK2 expressed in Escherichia coli at 0.1 uM by Z'-Lyte assay relative to control
[7] = molecular target: Epidermal growth factor receptor (Homo sapiens) (UniProt P00533); test: Inhibition of recombinant human GST-tagged EGFR cytoplasmic domain expressed in baculovirus expression system at 0.1 uM by TR-FRET assay relative to control
[8] = Half life in CD-1 mouse plasma at 10 mg/kg, po administered as single dose by LC-MS/MS analysis; assay type: ADME, organism-based
[9] = molecular target: Misshapen-like kinase 1 (Homo sapiens) (UniProt Q8N4C8); test: Inhibition of recombinant human GST-tagged MINK (1 to 320 residues) expressed in baculovirus expression system at 0.1 uM by Z'-Lyte assay relative to control
[10] = molecular target: CDK6/cyclin D3 (Homo sapiens) (UniProt P30281+Q00534); test: Inhibition of recombinant full length human GST-tagged CDK6/Cyclin-D3 expressed in baculovirus expression system at 1 uM by TR-FRET assay relative to control
[11] = molecular target: Protein kinase C beta type (Homo sapiens) (UniProt P05771); test: Inhibition of PKCbeta2 (unknown origin) at 0.1 uM by Z'-Lyte assay relative to control
[12] = molecular target: Mitogen-activated protein kinase 8 (Homo sapiens) (UniProt P45983); test: Inhibition of recombinant human full length His-tagged JNK1 expressed in baculovirus expression system at 0.1 uM by Z'-Lyte assay relative to control
[13] = molecular target: Serine/threonine-protein kinase TAO2 (Homo sapiens) (UniProt Q9UL54); test: Inhibition of recombinant human GST-tagged TAOK2 expressed in baculovirus expression system at 0.1 uM by Z'-Lyte assay relative to control
[14] = tested on: Epidermal growth factor receptor (Homo sapiens), P00533 [L858R,T790M]; test: Inhibition of recombinant human GST-tagged EGFR T790M/L858R double mutant expressed in baculovirus expression system at 1 uM by TR-FRET assay relative to control
[15] = molecular target: Tyrosine-protein kinase receptor UFO (Homo sapiens) (UniProt P30530); test: Inhibition of recombinant human N-terminal GST tagged AXL (473-end residues) expressed in baculovirus infected Sf9 cells at 0.1 uM by Z'-Lyte assay relative to control
[16] = molecular target: Vascular endothelial growth factor receptor 2 (Homo sapiens) (UniProt P35968); test: Inhibition of recombinant human His-tagged KDR cytoplasmic domain expressed in baculovirus expression system at 0.1 uM by Z'-Lyte assay relative to control
[17] = molecular target: Tyrosine-protein kinase receptor UFO (Homo sapiens) (UniProt P30530); test: Inhibition of recombinant human N-terminal GST tagged AXL (473-end residues) expressed in baculovirus infected Sf9 cells at 1 uM by Z'-Lyte assay relative to control
[18] = molecular target: Ephrin type-A receptor 2 (Homo sapiens) (UniProt P29317); test: Inhibition of recombinant human GST-tagged EPHA2 cytoplasmic domain expressed in baculovirus expression system at 1 uM by Z'-Lyte assay relative to control
[19] = molecular target: Phosphatidylinositol 4,5-bisphosphate 3-kinase catalytic subunit delta isoform (Homo sapiens) (UniProt O00329); test: Inhibition of PI3K delta (unknown origin) at 1 uM by ADP-Glo assay relative to control
U-87 MG [20] = test: Antitumor activity against luciferase-fused human U87MG cells orthotopically xenografted in nude mouse assessed as increase in mouse life span at 3.125 mg/kg, po qd for 5 weeks relative to control; assay type: functional, U-87MG ATCC; conditions: 840 h
[21] = molecular target: Dual specificity tyrosine-phosphorylation-regulated kinase 3 (Homo sapiens) (UniProt O43781); test: Inhibition of recombinant full length human GST-tagged DYRK3 expressed in baculovirus expression system at 0.1 uM by Z'-Lyte assay relative to control
[22] = molecular target: Serine/threonine-protein kinase MRCK beta (Homo sapiens) (UniProt Q9Y5S2); test: Inhibition of recombinant human His-tagged CDC42 BPB expressed in baculovirus expression system at 0.1 uM by Z'-Lyte assay relative to control
[23] = molecular target: ALK tyrosine kinase receptor (Homo sapiens) (UniProt Q9UM73); test: Inhibition of recombinant N-terminal GST-tagged human ALK cytoplasmic domain (1058 to 1620 residues) expressed in baculovirus expression system at 1 uM by TR-FRET assay relative to control
U-87 MG [24] = test: Cell cycle arrest in human U87MG cells after assessed as accumulation at G1-phase after 24 hrs by propidium iodide staining based flow cytometry; assay type: functional, U-87MG ATCC
[25] = molecular target: RAF proto-oncogene serine/threonine-protein kinase (Homo sapiens) (UniProt P04049); test: Inhibition of RAF1 (unknown origin) at 0.1 uM by TR-FRET assay relative to control
[26] = molecular target: Phosphatidylinositol 4,5-bisphosphate 3-kinase catalytic subunit beta isoform (Homo sapiens) (UniProt P42338); test: Inhibition of PI3K beta (unknown origin) at 1 uM by ADP-Glo assay relative to control
[27] = Fraction unbound in CD-1 mouse brain at 2 uM incubated for 4 hrs by LC/MS/MS analysis based equillibriun dialysis method; assay type: ADME, tissue-based

Chain of Serine/threonine-protein kinase MRCK beta (Homo sapiens) (Q9Y5S2 whole entry, the tested form may be a part): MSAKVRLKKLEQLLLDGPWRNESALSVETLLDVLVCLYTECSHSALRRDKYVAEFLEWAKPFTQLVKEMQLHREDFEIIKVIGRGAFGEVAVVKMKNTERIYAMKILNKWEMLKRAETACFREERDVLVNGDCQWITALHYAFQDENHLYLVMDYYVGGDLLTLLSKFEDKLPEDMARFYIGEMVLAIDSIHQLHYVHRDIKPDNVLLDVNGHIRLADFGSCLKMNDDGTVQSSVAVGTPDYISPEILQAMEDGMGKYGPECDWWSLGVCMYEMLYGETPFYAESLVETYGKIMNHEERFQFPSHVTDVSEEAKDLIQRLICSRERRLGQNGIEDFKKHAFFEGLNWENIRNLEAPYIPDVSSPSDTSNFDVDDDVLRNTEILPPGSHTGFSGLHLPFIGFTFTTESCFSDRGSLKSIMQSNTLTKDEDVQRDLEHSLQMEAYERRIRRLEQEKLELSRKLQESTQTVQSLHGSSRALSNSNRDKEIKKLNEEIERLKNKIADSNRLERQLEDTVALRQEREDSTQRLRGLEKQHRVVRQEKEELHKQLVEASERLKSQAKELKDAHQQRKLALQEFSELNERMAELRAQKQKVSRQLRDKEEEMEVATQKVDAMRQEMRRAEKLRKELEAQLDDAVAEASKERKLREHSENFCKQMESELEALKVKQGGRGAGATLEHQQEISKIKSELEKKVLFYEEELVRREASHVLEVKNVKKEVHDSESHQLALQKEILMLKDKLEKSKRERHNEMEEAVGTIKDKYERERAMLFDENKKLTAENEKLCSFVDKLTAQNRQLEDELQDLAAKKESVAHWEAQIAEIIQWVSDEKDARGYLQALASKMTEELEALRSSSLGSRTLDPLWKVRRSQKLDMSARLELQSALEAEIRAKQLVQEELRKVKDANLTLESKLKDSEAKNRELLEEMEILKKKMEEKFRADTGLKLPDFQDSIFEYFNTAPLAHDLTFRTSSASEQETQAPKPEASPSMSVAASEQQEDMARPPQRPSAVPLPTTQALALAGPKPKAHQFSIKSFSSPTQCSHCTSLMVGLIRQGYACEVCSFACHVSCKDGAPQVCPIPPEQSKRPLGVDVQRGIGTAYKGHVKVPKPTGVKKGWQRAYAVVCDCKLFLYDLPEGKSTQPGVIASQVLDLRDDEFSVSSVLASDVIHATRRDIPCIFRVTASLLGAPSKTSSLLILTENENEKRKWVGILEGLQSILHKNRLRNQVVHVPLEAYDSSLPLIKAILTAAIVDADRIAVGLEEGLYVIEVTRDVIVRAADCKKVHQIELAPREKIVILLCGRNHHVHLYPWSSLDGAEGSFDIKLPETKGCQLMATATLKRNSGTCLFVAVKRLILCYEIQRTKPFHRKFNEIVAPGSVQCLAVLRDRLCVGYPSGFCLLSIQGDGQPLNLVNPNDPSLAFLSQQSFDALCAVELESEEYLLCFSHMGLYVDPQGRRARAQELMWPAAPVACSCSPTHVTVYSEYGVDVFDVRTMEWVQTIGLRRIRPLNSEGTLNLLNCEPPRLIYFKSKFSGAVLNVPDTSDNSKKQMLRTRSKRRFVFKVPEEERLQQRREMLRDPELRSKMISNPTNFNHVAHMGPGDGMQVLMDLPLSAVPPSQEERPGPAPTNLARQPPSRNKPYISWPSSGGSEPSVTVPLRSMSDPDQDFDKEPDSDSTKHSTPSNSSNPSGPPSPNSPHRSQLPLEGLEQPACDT
Chain of Tyrosine-protein kinase receptor UFO (Homo sapiens) (P30530 whole entry, the tested form may be a part): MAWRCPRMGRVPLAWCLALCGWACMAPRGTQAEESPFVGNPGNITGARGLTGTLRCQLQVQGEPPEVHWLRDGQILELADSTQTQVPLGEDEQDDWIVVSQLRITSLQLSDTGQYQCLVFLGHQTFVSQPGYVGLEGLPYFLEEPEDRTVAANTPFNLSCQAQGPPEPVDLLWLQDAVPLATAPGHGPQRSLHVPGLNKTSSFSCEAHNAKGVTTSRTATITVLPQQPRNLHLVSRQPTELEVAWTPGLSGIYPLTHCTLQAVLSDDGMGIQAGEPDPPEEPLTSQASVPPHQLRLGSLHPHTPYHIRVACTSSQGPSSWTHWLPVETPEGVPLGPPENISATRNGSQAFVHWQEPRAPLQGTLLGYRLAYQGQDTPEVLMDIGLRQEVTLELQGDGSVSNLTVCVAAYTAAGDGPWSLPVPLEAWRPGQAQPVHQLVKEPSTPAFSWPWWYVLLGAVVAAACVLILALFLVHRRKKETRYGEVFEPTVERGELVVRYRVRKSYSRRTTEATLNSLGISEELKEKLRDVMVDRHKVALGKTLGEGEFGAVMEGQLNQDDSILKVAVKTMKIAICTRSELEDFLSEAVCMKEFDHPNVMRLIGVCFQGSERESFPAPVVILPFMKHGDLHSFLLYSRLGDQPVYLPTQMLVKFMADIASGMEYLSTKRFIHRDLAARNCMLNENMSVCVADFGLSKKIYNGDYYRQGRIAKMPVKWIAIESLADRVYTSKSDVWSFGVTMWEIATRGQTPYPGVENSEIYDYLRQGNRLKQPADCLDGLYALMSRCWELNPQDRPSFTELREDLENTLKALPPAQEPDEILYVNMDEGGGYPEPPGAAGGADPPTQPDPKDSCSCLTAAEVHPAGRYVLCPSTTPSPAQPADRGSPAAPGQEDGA
Chain of Phosphatidylinositol 4,5-bisphosphate 3-kinase catalytic subunit beta isoform (Homo sapiens) (P42338 whole entry, looked up, canonical isoform): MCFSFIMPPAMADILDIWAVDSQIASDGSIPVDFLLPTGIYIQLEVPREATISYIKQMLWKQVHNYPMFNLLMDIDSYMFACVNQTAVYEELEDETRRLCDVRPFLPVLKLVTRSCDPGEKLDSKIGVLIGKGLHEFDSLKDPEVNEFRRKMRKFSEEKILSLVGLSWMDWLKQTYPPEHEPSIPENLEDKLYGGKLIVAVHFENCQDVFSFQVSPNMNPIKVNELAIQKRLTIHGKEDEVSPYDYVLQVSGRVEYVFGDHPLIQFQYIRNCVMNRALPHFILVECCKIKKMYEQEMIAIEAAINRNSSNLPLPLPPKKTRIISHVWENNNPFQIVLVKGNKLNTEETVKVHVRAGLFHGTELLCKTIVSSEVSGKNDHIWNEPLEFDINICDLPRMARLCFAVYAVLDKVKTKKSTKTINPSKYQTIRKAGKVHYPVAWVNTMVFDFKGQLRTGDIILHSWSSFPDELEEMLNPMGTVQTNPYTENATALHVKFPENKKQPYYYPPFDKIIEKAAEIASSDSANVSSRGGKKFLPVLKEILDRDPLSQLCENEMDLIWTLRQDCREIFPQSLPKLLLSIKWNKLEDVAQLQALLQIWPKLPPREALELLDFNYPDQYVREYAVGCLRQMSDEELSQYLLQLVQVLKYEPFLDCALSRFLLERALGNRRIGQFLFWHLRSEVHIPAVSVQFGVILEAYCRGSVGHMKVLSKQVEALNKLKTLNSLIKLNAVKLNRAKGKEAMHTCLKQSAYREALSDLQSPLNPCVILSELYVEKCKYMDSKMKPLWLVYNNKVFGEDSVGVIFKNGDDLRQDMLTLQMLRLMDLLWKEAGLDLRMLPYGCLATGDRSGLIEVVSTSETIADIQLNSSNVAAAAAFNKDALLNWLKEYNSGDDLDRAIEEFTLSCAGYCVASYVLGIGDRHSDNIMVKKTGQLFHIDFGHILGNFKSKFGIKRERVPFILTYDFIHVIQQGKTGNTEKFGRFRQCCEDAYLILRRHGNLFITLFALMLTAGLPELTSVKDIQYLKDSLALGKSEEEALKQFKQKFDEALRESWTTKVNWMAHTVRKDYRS
Chain of Mitogen-activated protein kinase 8 (Homo sapiens) (P45983 whole entry): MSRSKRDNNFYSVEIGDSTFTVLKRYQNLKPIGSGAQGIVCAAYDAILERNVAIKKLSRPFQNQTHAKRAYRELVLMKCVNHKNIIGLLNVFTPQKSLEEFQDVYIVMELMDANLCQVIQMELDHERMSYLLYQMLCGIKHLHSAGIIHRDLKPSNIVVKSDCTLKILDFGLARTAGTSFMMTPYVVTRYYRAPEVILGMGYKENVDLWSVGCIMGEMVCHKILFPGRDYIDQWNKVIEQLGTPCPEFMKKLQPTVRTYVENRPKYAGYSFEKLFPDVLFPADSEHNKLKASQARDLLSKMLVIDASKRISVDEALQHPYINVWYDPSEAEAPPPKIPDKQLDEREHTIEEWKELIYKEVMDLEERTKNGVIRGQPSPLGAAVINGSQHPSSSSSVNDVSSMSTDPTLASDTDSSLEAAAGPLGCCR
Chain of Ephrin type-A receptor 2 (Homo sapiens) (P29317 whole entry, the tested form may be a part, canonical isoform): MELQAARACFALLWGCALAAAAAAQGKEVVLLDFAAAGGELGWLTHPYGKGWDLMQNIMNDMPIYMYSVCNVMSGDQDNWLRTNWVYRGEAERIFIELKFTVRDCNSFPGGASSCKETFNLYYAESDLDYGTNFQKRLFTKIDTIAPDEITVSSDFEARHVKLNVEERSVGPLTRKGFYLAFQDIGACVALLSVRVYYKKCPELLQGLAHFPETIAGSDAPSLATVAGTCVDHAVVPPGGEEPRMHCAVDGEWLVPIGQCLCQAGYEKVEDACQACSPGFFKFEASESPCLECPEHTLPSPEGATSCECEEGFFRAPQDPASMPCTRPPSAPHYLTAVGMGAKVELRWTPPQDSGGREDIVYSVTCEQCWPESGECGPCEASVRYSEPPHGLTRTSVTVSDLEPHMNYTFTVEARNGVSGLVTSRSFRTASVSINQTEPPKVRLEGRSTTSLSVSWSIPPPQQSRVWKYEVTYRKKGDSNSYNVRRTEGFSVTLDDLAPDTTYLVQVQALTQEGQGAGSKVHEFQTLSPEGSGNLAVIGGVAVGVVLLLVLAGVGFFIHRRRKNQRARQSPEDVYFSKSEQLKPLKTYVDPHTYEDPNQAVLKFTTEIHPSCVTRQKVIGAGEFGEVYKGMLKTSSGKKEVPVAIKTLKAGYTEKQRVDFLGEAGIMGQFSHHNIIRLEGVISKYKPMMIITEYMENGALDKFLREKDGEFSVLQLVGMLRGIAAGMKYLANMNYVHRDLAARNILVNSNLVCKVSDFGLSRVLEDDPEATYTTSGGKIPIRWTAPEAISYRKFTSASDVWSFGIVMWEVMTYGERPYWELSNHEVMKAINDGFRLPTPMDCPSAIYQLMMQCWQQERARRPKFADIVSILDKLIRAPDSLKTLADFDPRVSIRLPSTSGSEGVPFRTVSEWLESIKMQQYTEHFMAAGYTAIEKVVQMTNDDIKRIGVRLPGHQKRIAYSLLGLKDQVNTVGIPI

CC1=Nc2c(F)cc(-c3nc(Nc4ccc(C5CCN(C)CC5)cn4)ncc3F)cc2C12CCCC2 [CROZBACICLIB]
AUC(0-t) at 24 h [1]: 1140 ng·h/mL
inhibition [2]: 68%
Vd [3]: 17.4 L/kg
inhibition [4]: 34%
inhibition [5]: 9%
inhibition [6]: 0%
inhibition [7]: -5%
half-life [8]: 6.03 h
inhibition [9]: 17%
inhibition [10]: 101%
inhibition [11]: 3%
inhibition [12]: 6%
inhibition [13]: 26%
inhibition [14]: 79%
inhibition [15]: -1%
inhibition [16]: 2%
inhibition [17]: 26%
inhibition [18]: 4%
inhibition [19]: 14%
ILS at 3.125 mg/kg (U-87 MG [20]): 28%
inhibition [21]: 29%
inhibition [22]: 15%
inhibition [23]: 89%
Emax (U-87 MG [24]): 41.1%
Activity (U-87 MG [24]; U-87MG ATCC): Dose-dependent effect
inhibition [25]: -10%
inhibition [26]: 11%
Fu [27]: 0.04%
